This assay has as its target Alpha-synuclein (Homo sapiens, UniProt P37840). The experiment in a line: biochemical.

The results in this text go back to ChEMBL document CHEMBL2062425, “Synthesis and in vitro evaluation of α-synuclein ligands” (Bioorg Med Chem, 2012).

Some results are limits rather than exact numbers.

The compound `c1ccc2c(c1)Nc1ccccc1S2` [PHENOTHIAZINE] yielded an IC50 of 26 µM and a Ki above 0.5 µM.

One may read the IC50 as the concentration that inhibits the measured activity by half. Higher therefore signals weaker potency in that assay. The Ki is the equilibrium dissociation constant of an inhibitor or competing ligand from its target. A low value points to tighter binding.
